# Assay results reported in ChEMBL document CHEMBL3390836, “Mannich- and LedererManasse-based analogues of the natural product S-(+)-curcuphenol as cancer proliferation and migration inhibitors” (Medchemcomm, 2012).
# Experiments:
# Format in all cases: functional
# NCI-H23 = assay: Cytotoxicity against human NCI-H23 cells assessed as cell growth at 10^-8 M after 48 hrs by SRB assay relative to control; details: NCI-H23, 48 h, read-out: Activity
# IGROV-1 [1] = assay: Cytotoxicity against human IGROV1 cells assessed as cell growth at 10^-8 M after 48 hrs by SRB assay relative to control; details: IGROV-1, 48 h, read-out: Activity
# MDA-MB-435 = assay: Cytotoxicity against human MDA-MB-435 cells after 48 hrs by SRB assay; details: MDA-MB-435, 48 h
# Malme-3M [2] = assay: Cytotoxicity against human MALME-3M cells assessed as cell growth at 10^-4 M after 48 hrs by SRB assay relative to control; details: read-out: Activity
# SF-539 [3] = assay: Cytotoxicity against human SF539 cells assessed as cell growth at 10^-6 M after 48 hrs by SRB assay relative to control; details: SF-539, 48 h, read-out: Activity
# MCF7 = assay: Cytotoxicity against human MCF7 cells after 48 hrs by SRB assay; details: MCF7, 48 h
# [4] = Cytotoxicity against human OVCAR4 cells after 48 hrs by SRB assay; details: OVCAR-4, 48 h
# SK-MEL-2 = assay: Cytotoxicity against human SK-MEL-2 cells after 48 hrs by SRB assay; details: SK-MEL-2, 48 h
# T47D = assay: Cytotoxicity against human T47D cells after 48 hrs by SRB assay
# SK-MEL-5 [5] = assay: Cytotoxicity against human SK-MEL-5 cells after 48 hrs by SRB assay; details: SK-MEL-5, 48 h
# HL-60(TB) [6] = assay: Cytotoxicity against human HL-60(TB) cells after 48 hrs by SRB assay; details: HL-60, 48 h
# [7] = Cytotoxicity against human Hs 578T cells after 48 hrs by SRB assay
# HL-60(TB) [8] = assay: Cytotoxicity against human HL-60(TB) cells assessed as cell growth at 10^-6 M after 48 hrs by SRB assay relative to control; details: HL-60, 48 h, read-out: Activity
# SK-MEL-28 = assay: Cytotoxicity against human SK-MEL-28 cells assessed as cell growth at 10^-6 M after 48 hrs by SRB assay relative to control; details: SK-MEL-28, 48 h, read-out: Activity
# [9] = Cytotoxicity against human OVCAR5 cells assessed as cell growth at 10^-4 M after 48 hrs by SRB assay relative to control; details: OVCAR-5, 48 h, read-out: Activity
# [10] = Cytotoxicity against human OVCAR8 cells assessed as cell growth at 10^-6 M after 48 hrs by SRB assay relative to control; details: OVCAR-8, 48 h, read-out: Activity
# SF-539 [11] = assay: Cytotoxicity against human SF539 cells after 48 hrs by SRB assay; details: SF-539, 48 h
# [12] = Cytotoxicity against human OVCAR8 cells assessed as cell growth at 10^-7 M after 48 hrs by SRB assay relative to control; details: OVCAR-8, 48 h, read-out: Activity
# [13] = Cytotoxicity against human OVCAR5 cells after 48 hrs by SRB assay; details: OVCAR-5, 48 h
# RXF 393 [14] = assay: Cytotoxicity against human RXF393 cells assessed as cell growth at 10^-6 M after 48 hrs by SRB assay relative to control; details: RXF 393, 48 h, read-out: Activity
# 786-0 = assay: Cytotoxicity against human 786-0 cells assessed as cell growth at 10^-8 M after 48 hrs by SRB assay relative to control; details: 786-0, 48 h, read-out: Activity
# ACHN = assay: Cytotoxicity against human ACHN cells after 48 hrs by SRB assay
# IGROV-1 [15] = assay: Cytotoxicity against human IGROV1 cells assessed as cell growth at 10^-4 M after 48 hrs by SRB assay relative to control; details: IGROV-1, 48 h, read-out: Activity
# Malme-3M [16] = assay: Cytotoxicity against human MALME-3M cells assessed as cell growth at 10^-7 M after 48 hrs by SRB assay relative to control; details: read-out: Activity
# [17] = Cytotoxicity against human OVCAR8 cells assessed as cell growth at 10^-8 M after 48 hrs by SRB assay relative to control; details: OVCAR-8, 48 h, read-out: Activity
# SNB-75 = assay: Cytotoxicity against human SNB75 cells assessed as cell growth at 10^-4 M after 48 hrs by SRB assay relative to control; details: SNB-75, 48 h, read-out: Activity
# [18] = Cytotoxicity against human OVCAR4 cells assessed as cell growth at 10^-4 M after 48 hrs by SRB assay relative to control; details: OVCAR-4, 48 h, read-out: Activity
# HL-60(TB) [19] = assay: Cytotoxicity against human HL-60(TB) cells assessed as cell growth at 10^-8 M after 48 hrs by SRB assay relative to control; details: HL-60, 48 h, read-out: Activity
# [20] = Cytotoxicity against human HCT15 cells assessed as cell growth at 10^-4 M after 48 hrs by SRB assay relative to control; details: HCT-15, 48 h, read-out: Activity
# MOLT-4 = assay: Cytotoxicity against human MOLT4 cells assessed as cell growth at 10^-8 M after 48 hrs by SRB assay relative to control; details: MOLT-4, 48 h, read-out: Activity
# BT-549 = assay: Cytotoxicity against human BT549 cells assessed as cell growth at 10^-7 M after 48 hrs by SRB assay relative to control; details: BT-549, 48 h, read-out: Activity
# HOP-62 = assay: Cytotoxicity against human HOP62 cells assessed as cell growth at 10^-8 M after 48 hrs by SRB assay relative to control; details: HOP-62, 48 h, read-out: Activity
# HCC 2998 = assay: Cytotoxicity against human HCC2998 cells assessed as cell growth at 10^-4 M after 48 hrs by SRB assay relative to control; details: HCC 2998, 48 h, read-out: Activity
# RXF 393 [21] = assay: Cytotoxicity against human RXF393 cells assessed as cell growth at 10^-8 M after 48 hrs by SRB assay relative to control; details: RXF 393, 48 h, read-out: Activity
# SK-MEL-5 [22] = assay: Cytotoxicity against human SK-MEL-5 cells assessed as cell growth at 10^-7 M after 48 hrs by SRB assay relative to control; details: SK-MEL-5, 48 h, read-out: Activity
# NCI-H460 = assay: Cytotoxicity against human NCI-H460 cells assessed as cell growth at 10^-8 M after 48 hrs by SRB assay relative to control; details: NCI-H460, 48 h, read-out: Activity
# [23] = read-out: LC50 (the source's name)
smiles,measurement,setting,value
CC(C)=CCC[C@H](C)c1ccc(C)c2c1OCN(CC1CCNCC1)C2,growth at 0.01 µM,NCI-H23,94%
same,growth at 0.01 µM,IGROV-1 [1],101%
same,GI50,MDA-MB-435,6.48 µM
same,TGI,MDA-MB-435,20.9 µM
same,CC50,MDA-MB-435; [23],53.4 µM
same,growth at 100 µM,Malme-3M [2],-76%
same,growth at 1 µM,SF-539 [3],104%
same,GI50,MCF7,6.15 µM
same,TGI,MCF7,18.7 µM
same,CC50,MCF7; [23],45.2 µM
same,GI50,[4],16 µM
same,LC50,[4],58.9 µM
same,TGI,[4],30.7 µM
same,GI50,SK-MEL-2,18.2 µM
same,LC50,SK-MEL-2,69.2 µM
same,TGI,SK-MEL-2,35.5 µM
same,GI50,T47D,15.2 µM
same,LC50 (concentration killing 50% of cells),T47D,72.8 µM
same,TGI,T47D,33.2 µM
same,GI50,SK-MEL-5 [5],4.97 µM
same,LC50,SK-MEL-5 [5],49.8 µM
same,TGI,SK-MEL-5 [5],18.3 µM
same,GI50,HL-60(TB) [6],3.9 µM
same,TGI,HL-60(TB) [6],18.9 µM
same,CC50,HL-60(TB) [6]; [23],59.3 µM
same,GI50,[7],13.3 µM
same,LC50,[7],67 µM
same,TGI,[7],29.9 µM
same,growth at 1 µM,HL-60(TB) [8],82%
same,growth at 1 µM,SK-MEL-28,101%
same,growth at 100 µM,[9],-90%
same,growth at 1 µM,[10],100%
same,GI50,SF-539 [11],13.7 µM
same,TGI,SF-539 [11],27.5 µM
same,CC50,SF-539 [11]; [23],55.3 µM
same,growth at 0.1 µM,[12],101%
same,GI50,[13],14.3 µM
same,TGI,[13],28.8 µM
same,CC50,[13]; [23],57.7 µM
same,growth at 1 µM,RXF 393 [14],125%
same,growth at 0.01 µM,786-0,96%
same,GI50,ACHN,15.3 µM
same,LC50 (concentration killing 50% of cells),ACHN,58.9 µM
same,TGI,ACHN,30 µM
same,growth at 100 µM,IGROV-1 [15],-86%
same,growth at 0.1 µM,Malme-3M [16],94%
same,growth at 0.01 µM,[17],106%
same,growth at 100 µM,SNB-75,-99%
same,growth at 100 µM,[18],-91%
same,growth at 0.01 µM,HL-60(TB) [19],96%
same,growth at 100 µM,[20],-83%
same,growth at 0.01 µM,MOLT-4,106%
same,growth at 0.1 µM,BT-549,87%
same,growth at 0.01 µM,HOP-62,104%
same,growth at 100 µM,HCC 2998,-94%
same,growth at 0.01 µM,RXF 393 [21],86%
same,growth at 0.1 µM,SK-MEL-5 [22],88%
same,growth at 0.01 µM,NCI-H460,108%
